Broadly, the IC50 is the concentration that inhibits the measured activity by half. A higher IC50 goes with lower potency.

Molecules are shown by their SMILES.

For one experiment, the system named is HCT116-MTAP-KO. The experiment in a line: Compounds cell killing in HCT116 isogenic pair (CellTiter-Glo, 6 days), MTAP-KO cells. It counts as cell-based. Particulars: Homo sapiens, HCT-116, 144 h, Cell Titer-Glo, 0-10 μM. The source says: (§1) HCT116 cell line (ATCC, CCL-247) was isolated from the colon of an adult with colon cancer. It has a mutation in codon 13 of the ras proto-oncogene and can be used as a positive control for PCR assays of mutation in this codon. HCT116-MTAP-KO was knocked-out-MTAP-gene based HCT116, and a single clone was passed for this assay. HCT116-mock-RNA-KO was knocked-out-mock-gene based HCT116 with MTAP wildtype genotype. The base medium for HCT116 isogenic pair is RPMI 1640, HEPES (Gibco, 22400105). To make the complete growth medium, add the following components to the base medium: fetal bovine serum to a final concentration of 10% (Gibco, 10099-141C). The cell line was grown in a humidified 5% CO2 atmosphere at 37° C. and regularly tested for the presence of mycoplasma with MycoAlert™ PLUS Mycoplasma Detection Kit (Lonza, LT07-710).
(§2) • Seed HCT116-mock-RNA-KO (4E2/well) or HCT116-MTAP-KO (4E2/well) cells into a 96-well plate (Greiner: 655090), 100 µL/well. • Incubate at 37° C., 5% CO2, overnight. • Add 50 μL fresh growth-medium containing serial dilution of compounds for a final compound concentration of 0-10 μM to each well. • Incubate at 37° C., 5% CO2, 6 days. • The cell viability detected by Cell Titer-Glo (Promega, G7573). Add 70 μL of CellTiter-Glo® reagent in each well. • Incubate at room temperature for 10 minutes to stabilize luminescent signal. • Analyze with Microplate Reader (TECAN, SPARK) and fit IC50 using Prism® 9.
Background: ATP-based viability assays read luminescence as a measure of living cells.

The next experiment concerns HCT116-mock-RNA-KO. The experiment is described as follows: Compounds cell killing in HCT116 isogenic pair (CellTiter-Glo, 6 days), mock-KO (MTAP wildtype) cells. It is filed as cell-based. Conditions: Homo sapiens, HCT-116, 144 h, Cell Titer-Glo, 0-10 μM.
From the text: as §1, §2

With `NCc1n[nH]c(=O)c2ccc(C3(C(=O)N(Cc4ccc(C(F)(F)F)cn4)[C@@H]4CCCc5cccnc54)CC3)cc12` [Example 2A, (R)-1-(4-(aminomethyl)-1-oxo-1,2-dihydrophthalazin-6-yl)-N-(5,6,7,8-tetrahydroquinolin-8-yl)-N-((5-(trifluoromethyl)pyridin-2-yl)methyl)cyclopropane-1-carboxamide], the half-inhibitory concentration (IC50) in the experiment on HCT116-MTAP-KO was 98 nM; with HCT116-mock-RNA-KO it was 3680 nM.
`NCc1n[nH]c(=O)c2ccc(C3(C(=O)N(Cc4ccc5c(Br)cccc5n4)C4CCCc5cccnc54)CC3)cc12` (stereo not drawn) [Example 27, 1-(4-(aminomethyl)-1-oxo-1,2-dihydrophthalazin-6-yl)-N-((5-bromoquinolin-2-yl)methyl)-N-(5,6,7,8-tetrahydroquinolin-8-yl)cyclopropane-1-carboxamide]: the IC50 with HCT116-MTAP-KO is 415 nM; in the experiment on HCT116-mock-RNA-KO, 7290 nM.
For `CC(C)(O)c1ccc(CN(C(=O)C2(c3ccc4c(=O)[nH]nc(CN)c4c3)CC2)C2CCCc3cccnc32)nc1` (stereo not drawn) [Example 6, 1-(4-(aminomethyl)-1-oxo-1,2-dihydrophthalazin-6-yl)-N-((5-(2-hydroxypropan-2-yl)pyridin-2-yl)methyl)-N-(5,6,7,8-tetrahydroquinolin-8-yl)cyclopropane-1-carboxamide], the figures for the IC50 in the experiment on HCT116-MTAP-KO and in the experiment on HCT116-mock-RNA-KO were 2560 nM and over 10000 nM, respectively.
The corresponding values for `C[C@H]1CCC[C@@H](c2ccc(C(F)(F)F)cn2)N1C(=O)C1(c2ccc3c(=O)[nH]nc(CN)c3c2)CC1` (racemic) [Example 24, (±)-4-(aminomethyl)-6-(1-((2S,6S)-2-methyl-6-(5-(trifluoromethyl)pyridin-2-yl)piperidine-1-carbonyl)cyclopropyl)phthalazin-1(2H)-one] are 5260 nM and over 10000 nM.
The corresponding values for `N#Cc1cccc(F)c1-c1ccc(CN(C(=O)C2(c3ccc4c(=O)[nH]nc(CN)c4c3)CC2)C2CCCc3cccnc32)nc1` (stereo not drawn) [Example 28, 1-(4-(aminomethyl)-1-oxo-1,2-dihydrophthalazin-6-yl)-N-((5-(2-cyano-6-fluorophenyl)pyridin-2-yl)methyl)-N-(5,6,7,8-tetrahydroquinolin-8-yl)cyclopropane-1-carboxamide] are 102 nM and 3210 nM.
The matching figures for `NCc1n[nH]c(=O)c2ccc(C3(C(=O)N(Cc4ccc(-c5c(F)cccc5Cl)cn4)C4CCCc5cccnc54)CC3)cc12` (stereo not drawn) [Example 26, 1-(4-(aminomethyl)-1-oxo-1,2-dihydrophthalazin-6-yl)-N-((5-(2-chloro-6-fluorophenyl)pyridin-2-yl)methyl)-N-(5,6,7,8-tetrahydroquinolin-8-yl)cyclopropane-1-carboxamide]: 77 nM and 2780 nM.
For the molecule `NCc1n[nH]c(=O)c2ccc(C3(C(=O)N(Cc4ccc(-c5c(F)cccc5F)cn4)[C@H]4CCCc5cccnc54)CC3)cc12` [Example 19B, (S)-1-(4-(aminomethyl)-1-oxo-1,2-dihydrophthalazin-6-yl)-N-((5-(2,6-difluorophenyl)pyridin-2-yl)methyl)-N-(5,6,7,8-tetrahydroquinolin-8-yl)cyclopropane-1-carboxamide], the IC50 is 848 nM with HCT116-MTAP-KO and over 10000 nM in the experiment on HCT116-mock-RNA-KO.
For `NCc1n[nH]c(=O)c2ccc(C3(C(=O)N(Cc4ccc(-c5ccccc5)cn4)[C@@H]4CCCc5cccnc54)CC3)cc12` [Example 11A, (R)-1-(4-(aminomethyl)-1-oxo-1,2-dihydrophthalazin-6-yl)-N-((5-phenylpyridin-2-yl)methyl)-N-(5,6,7,8-tetrahydroquinolin-8-yl)cyclopropane-1-carboxamide], the IC50 in the experiment with HCT116-MTAP-KO worked out at 57 nM; in the experiment with HCT116-mock-RNA-KO, 2790 nM.
In the case of `NCc1n[nH]c(=O)c2ccc(C3(C(=O)N(Cc4ccc(C(F)(F)F)cn4)Cc4c(F)cccc4Cl)CC3)cc12` [Example 9, 1-(4-(aminomethyl)-1-oxo-1,2-dihydrophthalazin-6-yl)-N-(2-chloro-6-fluorobenzyl)-N-((5-(trifluoromethyl)pyridin-2-yl)methyl)cyclopropane-1-carboxamide], the IC50 worked out at 222 nM in the experiment on HCT116-MTAP-KO and 4670 nM in the experiment with HCT116-mock-RNA-KO.

The values are drawn from patent US20260226029A1, “1-(1-Oxo-1,2-Dihydrophthalazin-6-yl)Cycloalkyl-1-Carboxamide Derivatives as MTA-Cooperative Inhibitors of PRMT5” (BeOne Medicines I GmbH, priority 2023, published 2026).
